# Legend:
# clinical = conditions: human, 0.5 g
# [1] = Urine PK (urinary excretion, renal clearance) in healthy subjects; conditions: for CL renal: human, CLr
# [2] = Part C single-dose drug-drug interaction plasma PK in healthy subjects; conditions: for half-life / AUC(0-t) / clearance / Cmax / Vd: human, in vivo; for clearance: CL; for Vd: Vss
# Experimental: (§1) The blank control matrix was made up of human plasma (BioreclamationIVT) diluted 1:1 with SigmaFast (reconstituted protease inhibitor cocktail tablet [product S8820; Sigma-Aldrich, St. Louis, MO] in 10 ml of water) for preparation of calibration standards and QC samples. […] A 100-μl aliquot of the supernatant was transferred to 96-well plates. Samples were diluted further with 400 μl of water, and 5 μl of sample was injected into the LC-MS/MS system for analysis. […] The LLOQ for all analytes was 5 ng/ml.
# (§2) AUC was calculated using the log-linear trapezoidal rule.
# (§3) Pharmacokinetic parameters were summarized at each assessment time point using the mean ± standard deviation (SD), the percent coefficient of variation (CV), median, minimum, and maximum. Single-ascending-dose study data were assessed for dose proportionality using Cmax and AUC, and accumulation ratios was determined using repeat-dose cohorts. […] Noncompartmental analysis of PK parameters was performed using Phoenix WinNonlin (v6.4) software to determine PK parameters.
# [3] = Part D multiple-dose coadministration of DUR, SUL and IMI-CIL, plasma PK in healthy subjects; conditions: for AUC / Cmax / Tmax: human, in vivo; for AUC: AUC0–tau
# Experimental: as §1, §2, §3
# [4] = cited from earlier work
# [5] = part C cohort 14, Day 8, placebo subjects (no DUR), n=2
# [6] = part D cohort 15, Day 1, DUR + SUL + IMI-CIL q6h, mean, n=10
# [7] = part D cohort 15, Day 11, DUR + SUL + IMI-CIL q6h, mean, n=10
# [8] = AUC0–24, part C cohort 14, DUR 1 g + IMI-CIL 0.5 g + SUL 1 g, day 8
# [9] = part C cohort 14, IMI-CIL 0.5 g alone, day 3
# [10] = part C cohort 14, DUR 1 g + IMI-CIL 0.5 g + SUL 1 g, day 8
# [11] = part C cohort 14, DUR 1 g + IMI-CIL 0.5 g, day 5
# [12] = DUR 1 g + SUL 1 g + IMI-CIL 0.5 g q6h, day 11
# [13] = DUR 1 g + SUL 1 g + IMI-CIL 0.5 g q6h, day 1
# [14] = DUR 1 g + SUL 1 g + IMI-CIL 0.5 g q6h, day 1, median, n=10
# [15] = DUR 1 g + SUL 1 g + IMI-CIL 0.5 g q6h, day 11, median
# [16] = 1 g, part C cohort 13, SUL 1 g alone, day 1
# [17] = part C cohort 13, DUR 1 g + SUL 1 g coadministered, day 5
# [18] = part C cohort 14, SUL 1 g + IMI-CIL 0.5 g, day 8
compound,measurement,setting,value
"CC1(C)C[C@@H]1C(=O)N/C(=C\CCCCSC[C@H](N)C(=O)O)C(=O)O [CIL, cilastatin]",CL renal,clinical; in vivo,133 mL/min
same,CL renal,"[1]; in vivo, part C cohort 14, Day 8, placebo subjects (no DUR), n=2",206 mL/min
same,CL renal,"[1]; in vivo, part D cohort 15, Day 11, DUR + SUL + IMI-CIL q6h, mean",183 mL/min
same,Ae,[1]; [5],601.795 (46.820) mg
same,Fe,[1]; [5],120.359 (9.364) %
same,Ae,[1]; [6],3535.03 mg
same,Fe,[1]; [6],88.376%
same,Ae,[1]; [7],424.168 mg
same,Fe,[1]; [7],84.834%
same,half-life,[2],1.2 ± 0.2 h
same,AUC(0-t),[2]; [8],46900 ± 6600 ng·h/mL
same,AUC(0-t),"[2]; AUC0–24, part C cohort 14, DUR 1 g + IMI-CIL 0.5 g, day 5",47100 ± 7200 ng·h/mL
same,AUC(0-t),"[2]; AUC0–24, part C cohort 14, IMI-CIL 0.5 g alone, day 3",49600 ± 9800 ng·h/mL
same,clearance,[2]; [9],173 mL/min
same,Cmax,[2]; [10],40700 ± 4900 ng/mL
same,Cmax,[2]; [11],44000 ± 6100 ng/mL
same,Cmax,[2]; [9],46000 ± 8300 ng/mL
same,Vd,[2]; [10],10.4 ± 0.9 L
same,Vd,[2]; [11],9.9 ± 1.2 L
same,Vd,[2]; [9],9.6 ± 1.4 L
same,CL,[2]; [10],10.9 ± 1.6 L/h
same,t1/2,[2]; [10],1.2 ± 0.2 h
same,CL,[2]; [11],10.8 ± 1.8 L/h
same,t1/2,[2]; [11],1.2 ± 0.2 h
same,Accum. index,[3]; [12],1.1 ± 0.04
same,accumulation index,[3]; day 11 vs day 1,approximately 1
same,AUC,[3]; [13],45600 ± 7000 ng·h/mL
same,AUC,[3]; [12],39400 ± 7200 ng·h/mL
same,Cmax,[3]; [13],38600 ± 6000 ng/mL
same,Cmax,[3]; [12],38000 ± 5600 ng/mL
same,Tmax,[3]; [14],0.5 h
same,Tmax,[3]; [15],0.5 h
colistin,"nephrotoxicity, patients affected",[4]; patients treated with colistin,≥ 40%
same,mortality rate,[4]; patients with hospital-acquired or ventilator-associated pneumonia treated with colistin-based antibiotic regimens,approximately 40%
"CC1(C)[C@H](C(=O)O)N2C(=O)C[C@H]2S1(=O)=O [SUL, Sulbactam]",half-life,[2]; 1 g,1.3 ± 0.1 h
same,AUC(0-t),"[2]; 1 g, AUC0–24, part C cohort 13, SUL 1 g alone, day 1",68500 ± 4700 ng·h/mL
same,clearance,[2]; [16],243 mL/min
same,Cmax,[2]; [16],20700 ± 700 ng/mL
same,Vd,[2]; [16],18 ± 1.6 L
same,AUC(0-t),"[2]; AUC0–24, part C cohort 13, DUR 1 g + SUL 1 g coadministered, day 5",73000 ± 6200 ng·h/mL
same,AUC(0-t),[2]; [8],80600 ± 21200 ng·h/mL
same,AUC(0-t),"[2]; AUC0–24, part C cohort 14, SUL 1 g + IMI-CIL 0.5 g, day 8",81700 ± 5200 ng·h/mL
same,clearance,[2]; [17],230 mL/min
same,clearance,[2]; [10],217 mL/min
same,clearance,[2]; [18],205 mL/min
same,Cmax,[2]; [17],22000 ± 2700 ng/mL
same,Cmax,[2]; [18],24000 ± 2000 ng/mL
same,Vd,[2]; [17],18.1 ± 1.7 L
same,Vd,[2]; [10],15.2 ± 2.7 L
same,Vd,[2]; [18],15.4 ± 1.5 L
same,t1/2,[2]; [17],1.3 ± 0.1 h
same,t1/2,[2]; [18],1.3 ± 0.1 h
same,AUC,[3]; [13],76700 ± 5800 ng·h/mL
same,AUC,[3]; [12],67900 ± 7600 ng·h/mL
same,Cmax,[3]; [13],23900 ± 1300 ng/mL
same,Cmax,[3]; [12],22400 ± 6100 ng/mL
same,Tmax,[3]; [14],2.7 h
same,Tmax,[3]; [15],2.6 h
"C[C@@H](O)[C@H]1C(=O)N2C(C(=O)O)=C(SCCN=CN)C[C@H]12 [IMI, imipenem, reference compound]",CL renal,"clinical; urine, intravenous",102 mL/min
same,CL renal,"[1]; urine, intravenous, part C cohort 14, Day 8, placebo subjects (no DUR), n=2",70.4 mL/min
same,CL renal,"[1]; urine, intravenous, part D cohort 15, Day 11, DUR + SUL + IMI-CIL q6h, mean",136 mL/min
same,Ae,[1]; [5],183.832 (56.842) mg
same,Fe,[1]; [5],36.766 (11.368) %
same,Ae,[1]; [6],1407.051 mg
same,Fe,[1]; [6],35.1762%
same,Ae,[1]; [7],271.71 mg
same,Fe,[1]; [7],54.343%
same,AUC(0-t),[2]; AUC0–24,43700 ± 9200 ng·h/mL
same,clearance,[2],197 mL/min
same,Cmax,[2],34400 ± 5300 ng/mL
same,half-life,[2]; t1/2,1.2 ± 0.1 h
